Legend:
Assay in all cases: cells
Type in all cases: cell-based
CAMA1 = system: CAMA1
Experimental: (§1) From the stock concentration, 8 serial dilutions (1:5) were made with DMSO.
(§2) Day −1: Plate cells in 100 μl volume in 96 well plate. • Note: Cell number seeded adjusted for growth characteristics, so that at time of assay for proliferation following three-day drug treatment, the control wells should still be in log-growth phase (sub-confluent). Day 0: Drug added to plate for treatment. • A time 0 plate was processed for the proliferation assay to establish a baseline reading at time when drug was added.
(§3) LBNL are following the protocols set up by the NCI/NIH DTP Human Tumor Cell Line Screen Process (http://dtp.nci.nih.gov/branches/btb/ivclsp.html) and summarized below.
(§4) [(Ti−Tz)/(C−Tz)]×100 for concentrations for which Ti>/=Tz
(§5) [(Ti−Tz)/(C−Tz)]×100=50, • which is the drug concentration resulting in a 50% reduction in the net growth in control cells during the drug incubation. TGI: Total growth inhibition is calculated from
(§6) Ti=Tz. • The drug concentration resulting in total growth inhibition (down to the ‘time 0’ baseline). LC50: Net loss of cell growth at 50% is calculated from
(§7) [(Ti−Tz)/Tz]×100=−50. • The concentration of drug resulting in a 50% reduction in the cell number at the end of the drug treatment as compared to that at the beginning (time 0) indicating a net loss of cells following treatment.
(§8) Values are calculated for each of these three parameters if the level of activity is reached; however, if the effect is not reached or is exceeded, the value for that parameter is expressed as greater or less than the maximum or minimum concentration tested.

SKBR3 = system: SKBR3
Experimental: as §1, §2, §3, §4, §5, §6, §7, §8

MDAMB453 = system: MDAMB453
Experimental: as §1, §2, §3, §4, §5, §6, §7, §8

600MPE = system: 600MPE
Experimental: as §1, §2, §3, §4, §5, §6, §7, §8

MCF7 = system: MCF7
Experimental: as §1, §2, §3, §4, §5, §6, §7, §8

HCC2185 = system: HCC2185
Experimental: as §1, §2, §3, §4, §5, §6, §7, §8

SUM159PT = system: SUM159PT
Experimental: as §1, §2, §3, §4, §5, §6, §7, §8

HCC1569 = system: HCC1569
Experimental: as §1, §2, §3, §4, §5, §6, §7, §8

HCC1395 = system: HCC1395
Experimental: as §1, §2, §3, §4, §5, §6, §7, §8

HCC3153 = system: HCC3153
Experimental: as §1, §2, §3, §4, §5, §6, §7, §8

HCC1937 = system: HCC1937
Experimental: as §1, §2, §3, §4, §5, §6, §7, §8

SUM149PT = system: SUM149PT
Experimental: as §1, §2, §3, §4, §5, §6, §7, §8

HCC1143 = system: HCC1143
Experimental: as §1, §2, §3, §4, §5, §6, §7, §8

T47D = system: T47D
Experimental: as §1, §2, §3, §4, §5, §6, §7, §8

LY2 = system: LY2
Experimental: as §1, §2, §3, §4, §5, §6, §7, §8

Hs578T = system: Hs578T
Experimental: as §1, §2, §3, §4, §5, §6, §7, §8

BT483 = system: BT483
Experimental: as §1, §2, §3, §4, §5, §6, §7, §8

MDAMB415 = system: MDAMB415
Experimental: as §1, §2, §3, §4, §5, §6, §7, §8

SUM225CWN = system: SUM225CWN
Experimental: as §1, §2, §3, §4, §5, §6, §7, §8

MDAMB157 = system: MDAMB157
Experimental: as §1, §2, §3, §4, §5, §6, §7, §8

HCC38 = system: HCC38
Experimental: as §1, §2, §3, §4, §5, §6, §7, §8

MCF10F = system: MCF10F
Experimental: as §1, §2, §3, §4, §5, §6, §7, §8

[1] = Homo sapiens, 50% net loss of cells vs time 0, read-out: LC50 (the source's name)
[2] = Homo sapiens, 72 h, three-day drug treatment, read-out: gIC50

## COc1ncc(-c2ccc3nccc(-c4ccnnc4)c3c2)cc1NS(=O)(=O)c1ccc(F)cc1F [Compound B, 2,4-difluoro-N-{2-(methyloxy)-5-[4-(4-pyridazinyl)-6-quinolinyl]-3-pyridinyl}benzenesulfonamide]
CAMA1; CAMA1, total growth inhibition
  TGI: 239.9 nM
CAMA1; Homo sapiens, CAMA-1, 72 h, CAMA1, three-day drug treatment, read-out: gIC50
  IC50: 89.1 nM
CAMA1; Homo sapiens, CAMA-1, CAMA1, 50% net loss of cells vs time 0, read-out: LC50 (the source's name)
  CC50: 537 nM
SKBR3; Homo sapiens, SK-BR-3, 72 h, SKBR3, three-day drug treatment, read-out: gIC50
  IC50: 3.2 nM
SKBR3; SKBR3, total growth inhibition
  TGI: 199.5 nM
MDAMB453; Homo sapiens, MDA-MB-453, 72 h, MDAMB453, three-day drug treatment, read-out: gIC50
  IC50: 7.8 nM
MDAMB453; Homo sapiens, MDA-MB-453, MDAMB453, 50% net loss of cells vs time 0, read-out: LC50 (the source's name)
  CC50: 162 nM
MDAMB453; MDAMB453, total growth inhibition
  TGI: 54.9 nM
600MPE; [1]
  CC50: 875 nM
600MPE; [2]
  IC50: 6.8 nM
600MPE; total growth inhibition
  TGI: 33.5 nM
MCF7; Homo sapiens, 72 h, MCF7, three-day drug treatment, read-out: gIC50
  IC50: 7.3 nM
MCF7; Homo sapiens, MCF7, 50% net loss of cells vs time 0, read-out: LC50 (the source's name)
  CC50: 149 nM
MCF7; MCF7, total growth inhibition
  TGI: 22.0 nM
HCC2185; HCC2185, total growth inhibition
  TGI: 10.0 nM
HCC2185; Homo sapiens, 72 h, HCC2185, three-day drug treatment, read-out: gIC50
  IC50: 3.2 nM
HCC2185; Homo sapiens, HCC2185, 50% net loss of cells vs time 0, read-out: LC50 (the source's name)
  CC50: 132 nM
SUM159PT; Homo sapiens, SUM-159-PT, 50% net loss of cells vs time 0, read-out: LC50 (the source's name)
  CC50: > 33000 nM
SUM159PT; Homo sapiens, SUM-159-PT, 72 h, three-day drug treatment, read-out: gIC50
  IC50: 10.4 nM
SUM159PT; total growth inhibition
  TGI: 940.6 nM
HCC1569; HCC1569, total growth inhibition
  TGI: 67.4 nM
HCC1569; Homo sapiens, 72 h, HCC1569, three-day drug treatment, read-out: gIC50
  IC50: 16.3 nM
HCC1569; Homo sapiens, HCC1569, 50% net loss of cells vs time 0, read-out: LC50 (the source's name)
  CC50: > 33000 nM
HCC1395; HCC1395, total growth inhibition
  TGI: 358.6 nM
HCC1395; Homo sapiens, 72 h, HCC1395, three-day drug treatment, read-out: gIC50
  IC50: 50.3 nM
HCC1395; Homo sapiens, HCC1395, 50% net loss of cells vs time 0, read-out: LC50 (the source's name)
  CC50: 26700 nM
HCC3153; HCC3153, total growth inhibition
  TGI: 281.8 nM
HCC3153; Homo sapiens, 72 h, HCC3153, three-day drug treatment, read-out: gIC50
  IC50: 38.9 nM
HCC3153; Homo sapiens, HCC3153, 50% net loss of cells vs time 0, read-out: LC50 (the source's name)
  CC50: ≥ 35500 nM
HCC1937; HCC1937, total growth inhibition
  TGI: 321.7 nM
HCC1937; Homo sapiens, 72 h, HCC1937, three-day drug treatment, read-out: gIC50
  IC50: 25.4 nM
HCC1937; Homo sapiens, HCC1937, 50% net loss of cells vs time 0, read-out: LC50 (the source's name)
  CC50: ≥ 33000 nM
SUM149PT; [1]
  CC50: 2600 nM
SUM149PT; [2]
  IC50: 20.6 nM
SUM149PT; total growth inhibition
  TGI: 862.2 nM
HCC1143; HCC1143, total growth inhibition
  TGI: 344.0 nM
HCC1143; Homo sapiens, 72 h, HCC1143, three-day drug treatment, read-out: gIC50
  IC50: 34 nM
HCC1143; Homo sapiens, HCC1143, 50% net loss of cells vs time 0, read-out: LC50 (the source's name)
  CC50: 19500 nM
T47D; [1]
  CC50: 1000 nM
T47D; [2]
  IC50: 3.7 nM
T47D; total growth inhibition
  TGI: 19.1 nM
LY2; Homo sapiens, 72 h, LY2, three-day drug treatment, read-out: gIC50
  IC50: 11 nM
LY2; LY2, total growth inhibition
  TGI: 30.2 nM
Hs578T; Homo sapiens, Hs-578T, 50% net loss of cells vs time 0, read-out: LC50 (the source's name)
  CC50: > 33000 nM
Hs578T; Homo sapiens, Hs-578T, 72 h, three-day drug treatment, read-out: gIC50
  IC50: 67.4 nM
Hs578T; total growth inhibition
  TGI: 4556.2 nM
BT483; BT483, total growth inhibition
  TGI: 8.5 nM
BT483; Homo sapiens, BT-483, 72 h, BT483, three-day drug treatment, read-out: gIC50
  IC50: 1.5 nM
BT483; Homo sapiens, BT-483, BT483, 50% net loss of cells vs time 0, read-out: LC50 (the source's name)
  CC50: 1170 nM
MDAMB415; Homo sapiens, MDA-MB-415, 72 h, MDAMB415, three-day drug treatment, read-out: gIC50
  IC50: 20.8 nM
MDAMB415; Homo sapiens, MDA-MB-415, MDAMB415, 50% net loss of cells vs time 0, read-out: LC50 (the source's name)
  CC50: 528 nM
MDAMB415; MDAMB415, total growth inhibition
  TGI: 117.7 nM
SUM225CWN; [1]
  CC50: 436 nM
SUM225CWN; [2]
  IC50: 1.6 nM
SUM225CWN; total growth inhibition
  TGI: 14.8 nM
MDAMB157; Homo sapiens, MDA-MB-157, 72 h, MDAMB157, three-day drug treatment, read-out: gIC50
  IC50: 398 nM
MDAMB157; Homo sapiens, MDA-MB-157, MDAMB157, 50% net loss of cells vs time 0, read-out: LC50 (the source's name)
  CC50: > 33000 nM
MDAMB157; MDAMB157, total growth inhibition
  TGI: 3981.1 nM
HCC38; HCC38, total growth inhibition
  TGI: 158.5 nM
HCC38; Homo sapiens, 72 h, HCC38, three-day drug treatment, read-out: gIC50
  IC50: 55 nM
HCC38; Homo sapiens, HCC38, 50% net loss of cells vs time 0, read-out: LC50 (the source's name)
  CC50: 355 nM
MCF10F; Homo sapiens, MCF-10F, 72 h, three-day drug treatment, read-out: gIC50
  IC50: 2.4 nM
MCF10F; total growth inhibition
  TGI: 14.3 nM

— patent publication US20130317037A1, “METHOD OF ADMINISTRATION AND TREATMENT” (GlaxoSmithKline Intellectual Property Development Limited, priority 2010, published 2013)
